Source: patent US12310364B2, “Safened compositions comprising pyridine carboxylate herbicides and cloquintocet” (Corteva Agriscience LLC, priority 2018, dated 2025)
Where “and” joins values, the source holds several entries; their conditions need not be identical. Equal values may be shown once.

Experiments:
Assay type in all cases: in vivo
[1] = test system: Triticum aestivum (durum wheat), TRZDU; test: Greenhouse postemergence safening trial, visual injury on durum wheat
Description: (§1) Greenhouse Trial Methodology-Evaluation of Postemergence Herbicidal […] in Crops […] When required to ensure good germination and healthy plants, a fungicide treatment and/or other chemical or physical treatment was applied. The plants were grown for 7-36 days (d) in a greenhouse with an approximate 14-hour (h) photoperiod which was maintained at about 23° C. during the day and 22° C. during the night. Nutrients and water were added on a regular basis and supplemental lighting was provided with overhead metal halide 1000-Watt lamps as necessary. The plants were employed for testing when they reached the second or third true leaf stage. Emulsifiable concentrates of each of each pyridine carboxylate herbicide (Compound A or Compound B) were prepared at 100 grams acid equivalent per liter (g ae/L). […] The concentrated stock solutions were further diluted with an aqueous mixture of 1.25% […] or MSO® Concentrate with LECI-TECH® to obtain stock solutions at reduced application rates for each herbicide. Spray solutions of the herbicide combinations (Compound A or Compound B plus safener) were prepared by adding weighed amounts or aliquots of the safener to the stock solutions of Compound A or Compound B to form 12-mL spray solutions in two-way combinations. […] Control plants were sprayed in the same manner with the solvent blank. All herbicide (component a) application rates are given as “g ae/ha” and all safener (component b) application rates are given as “g ai/ha.” The treated plants and control plants were placed in a greenhouse as described above and watered by sub-irrigation to prevent wash-off of the test compounds.

[2] = test system: Avena sativa (common oat), AVESA; test: Greenhouse postemergence safening trial, visual injury on common oat
Description: as §1

[3] = test system: Matricaria inodora (false chamomile), MATIN; test: Greenhouse postemergence trial, visual injury on false chamomile
From the text: (§2) Greenhouse Trial Methodology—Evaluation of Postemergence Herbicidal Safening in Crops
(§3) Seeds of the desired test plant species were planted in a 90:10% v/v (volume/volume) mixture of PRO-MIX® BX (Premier Tech Horticulture, Quakertown, PA, USA) and PROFILE® GREENS GRADE™ (Profile Products LLC, Buffalo Grove, IL, USA) planting mixture, which typically has a pH of 5.2 to 6.2 and an organic matter content of at least 50 percent, in plastic pots with a surface area of 103.2 square centimeters (cm^2). When required to ensure good germination and healthy plants, a fungicide treatment and/or other chemical or physical treatment was applied. The plants were grown for 7-36 days (d) in a greenhouse with an approximate 14-hour (h) photoperiod which was maintained at about 23° C. during the day and 22° C. during the night. Nutrients and water were added on a regular basis and supplemental lighting was provided with overhead metal halide 1000-Watt lamps as necessary. The plants were employed for testing when they reached the second or third true leaf stage.
(§4) Emulsifiable concentrates of each of each pyridine carboxylate herbicide (Compound A or Compound B) were prepared at 100 grams acid equivalent per liter (g ae/L). An aliquot of each emulsifiable concentrate was placed in a 25 mL glass vial and diluted with an aqueous mixture of 1.25% (v/v) ACTIROB® B esterified rapeseed oil (Bayer Crop Science, Research Triangle Park, NC, USA) or MSO® Concentrate with LECI-TECH® methylated soybean oil (Loveland Products, Loveland, CO, USA) to obtain concentrated stock solutions at the highest application rate for each herbicide, based upon a 12 milliliter (mL) application volume at a rate of 187 liters per hectare (L/ha). The concentrated stock solutions were further diluted with an aqueous mixture of 1.25% v/v ACTIROB® B or MSO® Concentrate with LECI-TECH® to obtain stock solutions at reduced application rates for each herbicide. Spray solutions of the herbicide combinations (Compound A or Compound B plus safener) were prepared by adding weighed amounts or aliquots of the safener to the stock solutions of Compound A or Compound B to form 12-mL spray solutions in two-way combinations.
(§5) The spray solutions were applied to the plant material with an overhead Mandel track sprayer equipped with 8002E nozzles calibrated to deliver 187 L/ha over an application area of 0.503 square meters (m^2) at a spray height of 18 inches (43 centimeters (cm)) above the average plant canopy. Control plants were sprayed in the same manner with the solvent blank. All herbicide (component a) application rates are given as “g ae/ha” and all safener (component b) application rates are given as “g ai/ha.”
(§6) The treated plants and control plants were placed in a greenhouse as described above and watered by sub-irrigation to prevent wash-off of the test compounds. After 20-22 d, the condition of the test plants as compared with that of the control plants was determined visually and scored on a scale of 0 to 100 percent where 0 corresponds to no injury and 100 corresponds to complete kill.

[4] = test system: Sinapis arvensis (wild mustard), SINAR; test: Greenhouse postemergence trial, visual injury on wild mustard
From the text: as §2, §3, §4, §5, §6

[5] = test system: Brassica napus (winter rape), BRSNW; test: Greenhouse postemergence trial, visual injury on winter rape
Description: as §1

[6] = test system: blackgrass (ALOMY, Alopecurus myosuroides); test: Greenhouse postemergence trial, visual injury on blackgrass; settings: Table 19
From the text: as §2, §3
as §4, with “combinations. […]” for “combinations.”
as §6

[7] = test system: wild oat (AVEFA, Avena fatua); test: Greenhouse postemergence trial, visual injury on wild oat; settings: Table 19
From the text: as §2, §3
as §4, with “combinations. […]” for “combinations.”
as §6

[8] = test system: barnyardgrass (ECHCG, Echinochloa crus-galli); test: Greenhouse postemergence trial, visual injury on barnyardgrass; settings: Table 19
From the text: as §2, §3
as §4, with “combinations. […]” for “combinations.”
as §6

[9] = test system: soybean (GLXMA, Glycine max); test: Greenhouse postemergence trial, visual injury on soybean; settings: Table 19
From the text: as §2, §3
as §4, with “combinations. […]” for “combinations.”
as §6

[10] = test system: ivyleaf morningglory (IPOHE, Ipomoea hederacea); test: Greenhouse postemergence trial, visual injury on ivyleaf morningglory; settings: Table 19
From the text: as §2, §3
as §4, with “combinations. […]” for “combinations.”
as §6

[11] = test system: kochia (KCHSC, Kochia scoparia); test: Greenhouse postemergence trial, visual injury on kochia; settings: Table 19
From the text: as §2, §3
as §4, with “combinations. […]” for “combinations.”
as §6

[12] = test system: giant foxtail (SETFA, Setaria faberi); test: Greenhouse postemergence trial, visual injury on giant foxtail; settings: Table 19
From the text: as §2, §3
as §4, with “combinations. […]” for “combinations.”
as §6

[13] = test system: wild pansy (VIOTR, Viola tricolor); test: Greenhouse postemergence trial, visual injury on wild pansy; settings: Table 19
From the text: as §2, §3
as §4, with “combinations. […]” for “combinations.”
as §6

[14] = Compound A 40 g/ha alone, Table 14
[15] = Compound A 40 g/ha alone, Table 16
[16] = CQC-mexyl 40 g/ha alone, Table 14
[17] = CQC-mexyl 10 g/ha alone, Table 16
[18] = CQC-mexyl 20 g/ha alone, Table 16
[19] = CQC-mexyl 40 g/ha alone, Table 16
[20] = CQC-mexyl 80 g/ha alone, Table 16

`N#CCOC(=O)c1nc(-c2ccc3cc[nH]c3c2F)c(F)c(N)c1Cl` [Compound A, cyanomethyl 4-amino-3-chloro-5-fluoro-6-(7-fluoro-1H-indol-6-yl)pyridine-2-carboxylate] was tested, and the “% visual injury, Ob” value [1, 14] was 45%, the “% visual injury, Ob” value ([1]; herbicide alone 40 g/ha) was 45% and the “% visual injury, Ob” value [2, 14] was 0%. For the same molecule, the “% visual injury, Ob” value ([2]; herbicide alone 40 g/ha) was 0%, the “% visual injury, Ob” value [3, 15] was 100% and the “% visual injury, Ob” value ([3]; herbicide alone 40 g/ha) was 100%. For the same molecule, the “% visual injury, Ob” value [4, 15] was 99%, the “% visual injury, Ob” value ([4]; herbicide alone 40 g/ha) was 99% and the “% visual injury, Ob” value ([5]; Compound A 20 g/ha alone, Table 15) was 70%. The “% visual injury, Ob” value ([5]; Compound A 20 g/ha alone, Table 19) was 85%, the “% visual injury, Ob” value ([5]; herbicide alone 20 g/ha) was 70% and 95% and the “% visual injury, Ob” value ([6]; Compound A 20 g/ha alone) was 0%. For the same molecule, the “% visual injury, Ob” value ([7]; Compound A 20 g/ha alone) was 0%, the “% visual injury, Ob” value ([8]; Compound A 20 g/ha alone) was 85% and the “% visual injury, Ob” value ([9]; Compound A 20 g/ha alone) was 100%. The “% visual injury, Ob” value ([10]; Compound A 20 g/ha alone) was 0%, the “% visual injury, Ob” value ([11]; Compound A 20 g/ha alone) was 97% and the “% visual injury, Ob” value ([12]; Compound A 20 g/ha alone) was 65%. For the same molecule, the “% visual injury, Ob” value ([13]; Compound A 20 g/ha alone) was 30%.
For `CCCCCC(C)OC(=O)COc1ccc(Cl)c2cccnc12` (stereo not shown) [CQC-mexyl, cloquintocet-mexyl], the “% visual injury, Ob” value [1, 16] was 0%, the “% visual injury, Ob” value ([1]; safener alone 40 g/ha) was 0% and the “% visual injury, Ob” value [2, 16] was 0%. The “% visual injury, Ob” value ([2]; safener alone 40 g/ha) was 0%, the “% visual injury, Ob” value [3, 17] was 0% and the “% visual injury, Ob” value [3, 18] was 0%. The “% visual injury, Ob” value [3, 19] was 0%, the “% visual injury, Ob” value [3, 20] was 0% and the “% visual injury, Ob” value [4, 17] was 0%. The “% visual injury, Ob” value [4, 18] was 0%, the “% visual injury, Ob” value [4, 19] was 0% and the “% visual injury, Ob” value [4, 20] was 0%. For the same molecule, the “% visual injury, Ob” value ([4]; safener alone 5 g/ha) was 0%, the “% visual injury, Ob” value ([4]; safener alone 10 g/ha) was 0% and the “% visual injury, Ob” value ([4]; safener alone 20 g/ha) was 0%. For the same molecule, the “% visual injury, Ob” value ([4]; safener alone 40 g/ha) was 0%, the “% visual injury, Ob” value ([5]; CQC-mexyl 5 g/ha alone, Table 15) was 0% and the “% visual injury, Ob” value ([5]; CQC-mexyl 10 g/ha alone, Table 15) was 0%. The “% visual injury, Ob” value ([5]; CQC-mexyl 20 g/ha alone, Table 15) was 0%, the “% visual injury, Ob” value ([5]; CQC-mexyl 20 g/ha alone, Table 19) was 0% and the “% visual injury, Ob” value ([5]; CQC-mexyl 40 g/ha alone, Table 15) was 0%. For the same molecule, the “% visual injury, Ob” value ([5]; CQC-mexyl 40 g/ha alone, Table 19) was 0%, the “% visual injury, Ob” value ([5]; CQC-mexyl 80 g/ha alone, Table 19) was 0% and the “% visual injury, Ob” value ([5]; safener alone 5 g/ha) was 0%. For the same molecule, the “% visual injury, Ob” value ([5]; safener alone 10 g/ha) was 0%, the “% visual injury, Ob” value ([5]; safener alone 20 g/ha) was 0% and the “% visual injury, Ob” value ([5]; safener alone 40 g/ha) was 0%. The “% visual injury, Ob” value ([6]; CQC-mexyl 20 g/ha alone) was 0%, the “% visual injury, Ob” value ([6]; CQC-mexyl 40 g/ha alone) was 0% and the “% visual injury, Ob” value ([6]; CQC-mexyl 80 g/ha alone) was 0%. For the same molecule, the “% visual injury, Ob” value ([7]; CQC-mexyl 20 g/ha alone) was 0%, the “% visual injury, Ob” value ([7]; CQC-mexyl 40 g/ha alone) was 0% and the “% visual injury, Ob” value ([7]; CQC-mexyl 80 g/ha alone) was 0%. For the same molecule, the “% visual injury, Ob” value ([8]; CQC-mexyl 20 g/ha alone) was 0%, the “% visual injury, Ob” value ([8]; CQC-mexyl 40 g/ha alone) was 0% and the “% visual injury, Ob” value ([8]; CQC-mexyl 80 g/ha alone) was 0%. For the same molecule, the “% visual injury, Ob” value ([9]; CQC-mexyl 20 g/ha alone) was 0%, the “% visual injury, Ob” value ([9]; CQC-mexyl 40 g/ha alone) was 0% and the “% visual injury, Ob” value ([9]; CQC-mexyl 80 g/ha alone) was 0%. For the same molecule, the “% visual injury, Ob” value ([10]; CQC-mexyl 20 g/ha alone) was 0%, the “% visual injury, Ob” value ([10]; CQC-mexyl 40 g/ha alone) was 0% and the “% visual injury, Ob” value ([10]; CQC-mexyl 80 g/ha alone) was 0%. For the same molecule, the “% visual injury, Ob” value ([11]; CQC-mexyl 20 g/ha alone) was 0%, the “% visual injury, Ob” value ([11]; CQC-mexyl 40 g/ha alone) was 0% and the “% visual injury, Ob” value ([11]; CQC-mexyl 80 g/ha alone) was 0%. The “% visual injury, Ob” value ([12]; CQC-mexyl 20 g/ha alone) was 0%, the “% visual injury, Ob” value ([12]; CQC-mexyl 40 g/ha alone) was 0% and the “% visual injury, Ob” value ([12]; CQC-mexyl 80 g/ha alone) was 0%. For the same molecule, the “% visual injury, Ob” value ([13]; CQC-mexyl 20 g/ha alone) was 0%, the “% visual injury, Ob” value ([13]; CQC-mexyl 40 g/ha alone) was 0% and the “% visual injury, Ob” value ([13]; CQC-mexyl 80 g/ha alone) was 0%.
